Measurements as given in patent EP4678638A1, “NEW E3 UBIQUITIN LIGASE LIGAND, PROTEIN DEGRADATION AGENT AND USE THEREOF” (priority 2023, dated 2024).

Legend:
[1] = tested on: SW620; experiment: CCK-8 proliferation, SW620; type: cell-based; conditions: Homo sapiens, SW-620; CCK-8; 96 hours; read-out: Inhibitory activity (IC50) on tumor cell proliferation, SW620
Experimental: (§1) The tumor cells used herein were cultured in a cell culture medium listed in table A1 at 37°C in an incubator with 5% CO2. Prior to experimentation, all cell lines used were correctly identified by STR profiling, and tested negative for mycoplasma contamination using a mycoplasma detection kit through routine screenings. Table A1. Tumor cells and cell culture medium used in the present disclosure
(§2) IC50 values of the compounds of the present disclosure (including the compounds in Table 1, and compounds of examples) were measured using the Meilun Cell Counting Kit-8 kit from Dalian Meilun Biotech Co., Ltd. Assay details are as follows: tumor cells were seeded in a 96-well plate at a density listed in Table A2. After 24h, 100 µL of the inoculated cells were treated with 0.5µL of the compounds of the present disclosure (including the compounds in Tables 1 and 2, and compounds of examples) at 10 different successively decreasing concentrations (starting at the highest concentration of 10µM; 5-fold serial dilutions). After the cells were treated with the compounds of the present disclosure for a period of time, the cell viability detection reagent was added to the culture medium for cell viability assessment according to the instructions provided with the CCK-8 kit. […] The growth inhibition of the compounds of the present disclosure on cells was plotted by Prism Graphpad software, and the IC50 values of the compounds of the present disclosure were calculated therefrom. […] Seeding protocol and treatment time for tumor cells

[2] = tested on: MM.1R; experiment: CCK-8 proliferation, MM.1R; type: cell-based; conditions: CCK-8, 72 hours, read-out: Inhibitory activity (IC50) on tumor cell proliferation, MM.1R
Experimental: as §1, §2

[3] = tested on: PC-9; experiment: CCK-8 proliferation, PC-9; type: cell-based, Human; conditions: Homo sapiens, PC-9; CCK-8; 96 hours; read-out: Inhibitory activity (IC50) on tumor cell proliferation, PC-9
In short: (§3)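 Tumor cells were cultured at 37°C with 5% CO2, seeded, and after 24h treated with compounds at 10 concentrations starting at 10µM (5-fold serial dilutions).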

[4] = tested on: H1975; experiment: CCK-8 proliferation, NCI-H1975 (H1975); type: cell-based, Human; conditions: Homo sapiens, NCI-H1975; CCK-8; 96 hours; read-out: Inhibitory activity (IC50) on tumor cell proliferation, H1975
In short: as §3

[5] = tested on: H2228; experiment: CCK-8 proliferation, NCI-H2228 (H2228); type: cell-based; conditions: Homo sapiens, NCI-H2228; CCK-8; 96 hours; read-out: Inhibitory activity (IC50) on tumor cell proliferation, H2228
In short: as §3

[6] = tested on: H1975-1µM Osimertinib cells; experiment: CCK-8 proliferation, osimertinib-resistant H1975 cells; type: cell-based, Human; conditions: Homo sapiens, NCI-H1975; CCK-8; osimertinib-resistant H1975 cells obtained by treating H1975 cells with 1 µM Osimertinib for 3 months; read-out: Inhibitory activity (IC50) on tumor cell proliferation, H1975-1µm Osimertinib
Experimental: as §1, §2

[7] = tested on: HCC827; experiment: CCK-8 proliferation, HCC827; type: cell-based, Human; conditions: Homo sapiens, HCC827; CCK-8; 96 hours; read-out: Inhibitory activity (IC50) on tumor cell proliferation, HCC827
Experimental: as §1, §2

[8] = tested on: EGFR; experiment: Western blot degradation of EGFR (H1975 Cell); type: cell-based, Human; conditions: Table D2
In short: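 After compound exposure, cells were harvested and lysates run on SDS-PAGE, transferred to nitrocellulose and probed with antibodies. Remaining target (%) was computed from band grayscale relative to an internal control protein and normalised; degradation (%) was 100% minus that.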

Compound | IC50 [1] | IC50 [2] | IC50 [3] | IC50 [4] | IC50 [5] | IC50 [6] | IC50 [7] | Degradation of substrate protein EGFR (substrate protein remaining %) [8]
NC(=O)c1ncc(N2CCCCC2)nc1Nc1ccc(C2CCN(Cc3ccc(C4CCC(=O)NC4=O)cc3)CC2)cc1 (stereo not shown) [GT-04785, 3-((4-(1-(4-(2,6-dioxopiperidin-3-yl)benzyl)piperidin-4-yl)phenyl)amino)-5-(piperidin-1-yl)pyrazine-2-carboxamide] | 500 to 1000 nM | 100 to 500 nM | 100 to 500 nM | 500 to 1000 nM | 100 to 500 nM |  |  | 
NC(=O)c1ncc(N2CCCCC2)nc1Nc1ccc(C2CCN(Cc3cccc(N4CCC(=O)NC4=O)c3)CC2)cc1 [GT-04787, 3-((4-(1-(3-(2,4-dioxotetrahydropyrimidin-1(2H)-yl)benzyl)piperidin-4-yl)phenyl)amino)-5-(piperidin-1-yl)pyrazine-2-carboxamide] |  | 500 to 1000 nM | 100 to 500 nM | 500 to 1000 nM | 100 to 500 nM |  |  | 
CN(Cc1ccc(C2CCC(=O)NC2=O)cc1)C1CCN(c2ccc(C(N)=O)c(-c3ccc(Oc4ccccc4)cc3)n2)CC1 (stereo not shown) [GT-03828, 6-(4-((4-(2,6-dioxopiperidin-3-yl)benzyl)(methyl)amino)piperidin-1-yl)-2-(4-phenoxyphenyl)nicotinamide] |  | 500 to 1000 nM |  |  |  |  |  | 
CN1CCN([C@@H]2CCCN(c3cnc(C(N)=O)c(Nc4ccc(C5CCN(Cc6cccc(N7CCC(=O)NC7=O)c6)CC5)cc4)n3)C2)C1=O [GT-04800, (R)-3-((4-(1-(3-(2,4-dioxotetrahydropyrimidin-1(2H)-yl)benzyl)piperidin-4-yl)phenyl)amino)-5-(3-(3-methyl-2-oxoimidazolidin-1-yl)piperidin-1-yl)pyrazine-2-carboxamide] |  | 500 to 1000 nM | 100 to 500 nM |  | 500 to 1000 nM |  |  | 
NC(=O)c1ncc(N2CCCCC2)nc1Nc1ccc(C2CCN(Cc3cccc(NC4CCC(=O)NC4=O)c3)CC2)cc1 (stereo not shown) [GT-04791, 3-((4-(1-(3-((2,6-dioxopiperidin-3-yl)amino)benzyl)piperidin-4-yl)phenyl)amino)-5-(piperidin-1-yl)pyrazine-2-carboxamide] | 500 to 1000 nM | < 1 nM | 500 to 1000 nM |  | 100 to 500 nM |  |  | 
CN1CCN([C@@H]2CCCN(c3cnc(C(N)=O)c(Nc4ccc(C5CCN(Cc6ccc(N7CCC(=O)NC7=O)cc6)CC5)cc4)n3)C2)C1=O [GT-04802, (R)-3-((4-(1-(4-(2,4-dioxotetrahydropyrimidin-1(2H)-yl)benzyl)piperidin-4-yl)phenyl)amino)-5-(3-(3-methyl-2-oxoimidazolidin-1-yl)piperidin-1-yl)pyrazine-2-carboxamide] |  | 100 to 500 nM | 100 to 500 nM | 500 to 1000 nM | 100 to 500 nM |  |  | 
O=C1CCN(c2ccc(CN3CCN(C4CCN(c5ccc(Nc6ncc7nc(Nc8ccccc8)n(C8CCCC8)c7n6)cc5)CC4)CC3)cc2)C(=O)N1 [GT-05917, 1-(4-((4-(1-(4-((9-cyclopentyl-8-(phenylamino)-9H-purin-2-yl)amino)phenyl)piperidin-4-yl)piperazin-1-yl)methyl)phenyl)dihydropyrimidine-2,4(1H,3H)-dione] |  |  | 1 to 10 nM | 100 to 500 nM |  | 500 to 1000 nM | 1 to 10 nM | A (A is defined as 0% ≤ substrate protein remaining % ≤ 80%)
O=C1CCC(c2ccc(CN3CCN(C4CCN(c5ccc(Nc6ncc7nc(Nc8ccccc8)n(C8CCCC8)c7n6)cc5)CC4)CC3)cc2)C(=O)N1 (stereo not shown) [GT-05915, 3-(4-((4-(1-(4-((9-cyclopentyl-8-(phenylamino)-9H-purin-2-yl)amino)phenyl)piperidin-4-yl)piperazin-1-yl)methyl)phenyl)piperidine-2,6-dione] |  |  | 1 to 10 nM | 50 to 100 nM |  | 500 to 1000 nM | 1 to 10 nM | A (A is defined as 0% ≤ substrate protein remaining % ≤ 80%)
